In one assay the target is T1, PDGFRalpha(V561D) (Homo sapiens, UniProt P16234, V561D).
T1 construct: recombinant human PDGFRalpha, amino acids 550end containing the V561 D mutation; 6His (N)
Briefly: PDGFRalpha(V561D) assay. The format is biochemical. The conditions noted are these: recombinant human PDGFRalpha aa 550-end, 200 μM ATP, 1.4E-06 means 1.4×10^−6, read-out: Inhibition (IC50) of PDGFRα (V561D). A digest of the protocol:
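Radiometric filter-binding assay: substrate phosphorylation by recombinant N-His-tagged human PDGFRα 550-end V561D was quenched with 3% phosphoric acid after 40 min at room temperature, then counted.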

The target of the next assay is T2, c-Kit(V654A) (Homo sapiens, UniProt P10721, V654A).
T2 construct: amino acids 544-end containing the V654A mutation; GST (N)
Nature of the assay: c-Kit(V654A) assay. Format: biochemical. Particulars: recombinant human c-Kit aa 544-end, 200 μM ATP, 1.4E-06 means 1.4×10^−6, read-out: Inhibition (IC50) of c-KIT (V654A). A digest of the protocol: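 Radiometric filter-binding read-out: substrate 33P incorporation counted by scintillation after P30 filtermat washes in 75 mM phosphoric acid and methanol. Enzyme: N-GST recombinant human c-Kit aa 544-end carrying V654A.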

SMILES strings stand for the structures.

T1 sequence (P16234 550-1089 V561D): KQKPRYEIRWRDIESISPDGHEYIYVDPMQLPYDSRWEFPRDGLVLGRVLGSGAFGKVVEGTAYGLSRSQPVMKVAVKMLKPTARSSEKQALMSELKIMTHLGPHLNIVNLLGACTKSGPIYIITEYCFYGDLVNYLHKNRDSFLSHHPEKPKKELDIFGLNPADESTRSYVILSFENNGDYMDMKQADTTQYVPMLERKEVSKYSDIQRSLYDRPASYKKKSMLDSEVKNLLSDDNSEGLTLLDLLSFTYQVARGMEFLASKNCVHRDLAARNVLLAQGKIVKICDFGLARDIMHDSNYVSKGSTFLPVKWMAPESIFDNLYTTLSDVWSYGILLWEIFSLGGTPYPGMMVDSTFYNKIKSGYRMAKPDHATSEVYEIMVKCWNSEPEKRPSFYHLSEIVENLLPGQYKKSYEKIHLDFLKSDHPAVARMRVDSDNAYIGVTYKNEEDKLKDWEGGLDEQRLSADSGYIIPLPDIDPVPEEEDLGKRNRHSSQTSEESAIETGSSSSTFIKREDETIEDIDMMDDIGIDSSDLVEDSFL
T2 sequence (P10721 544-976 V654A): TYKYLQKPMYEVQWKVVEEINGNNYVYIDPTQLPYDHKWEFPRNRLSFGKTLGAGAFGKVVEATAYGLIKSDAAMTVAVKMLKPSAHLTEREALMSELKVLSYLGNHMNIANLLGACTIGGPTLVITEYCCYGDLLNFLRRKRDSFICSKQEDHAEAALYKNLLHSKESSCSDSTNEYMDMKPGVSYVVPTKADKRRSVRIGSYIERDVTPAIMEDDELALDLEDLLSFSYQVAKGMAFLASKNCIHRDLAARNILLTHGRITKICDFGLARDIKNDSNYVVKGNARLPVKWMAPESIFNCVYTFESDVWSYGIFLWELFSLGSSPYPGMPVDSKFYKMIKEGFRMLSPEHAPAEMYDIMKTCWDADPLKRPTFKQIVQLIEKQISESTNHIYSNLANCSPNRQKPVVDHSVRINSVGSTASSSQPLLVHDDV

A word on the IC50: it is the concentration needed to halve the response being measured. As to `CO[C@H]1CCN(C(=O)c2ccc(-n3cc(-c4cc5cc(F)ccc5[nH]c4=O)cn3)cc2)C1` [A297, 6-fluoro-3-{1-[4-((S)-3-methoxy-pyrrolidine-1-carbonyl)-phenyl]-1H-pyrazol-4-yl}-1H-quinolin-2-one], the IC50 at PDGFRalpha(V561D) stood at 0.24 µM; at c-Kit(V654A), 0.066 µM.

In the case of `CN1CC[C@H](Oc2ccc(-n3cc(-c4cc5cc(F)ccc5[nH]c4=O)nn3)cc2)C1` [A370, 6-fluoro-3-{1-[4-((S)-1-methyl-pyrrolidin-3-yloxy)-phenyl]-1H-[1,2,3]triazol-4-yl}-1H-quinolin-2-one], the IC50 is 0.058 µM on PDGFRalpha(V561D) and 0.031 µM at c-Kit(V654A).

`CC(=O)N(C)c1ccc(-n2cc(-c3cc4cc(F)ccc4[nH]c3=O)nn2)cc1` [A353, N-{4-[4-(6-fluoro-2-oxo-1,2-dihydro-quinolin-3-yl)-[1,2,3]triazol-1-yl]-phenyl}-N-methyl-acetamide]: the results for the IC50 at PDGFRalpha(V561D) and on c-Kit(V654A) were 0.19 µM and 0.094 µM, respectively.

Regarding `CN(C)C[C@H]1CCN(C(=O)c2ccc(-n3cc(-c4cc5cc(F)c(F)cc5[nH]c4=O)nn3)cc2)C1` [A335, 3-{1-[4-((R)-3-dimethylaminomethyl-pyrrolidine-1-carbonyl)-phenyl]-1H-[1,2,3]triazol-4-yl}-6,7-difluoro-1H-quinolin-2-one], the values for the half-inhibitory concentration (IC50) at PDGFRalpha(V561D) and on c-Kit(V654A) were 0.68 µM and 0.17 µM, respectively.

On to `CN1CCN(C(=O)COc2ccc(-n3cc(-c4cc5cc(F)c(F)cc5[nH]c4=O)nn3)cc2)CC1` [A167, 6,7-difluoro-3-(1-{4-[2-(4-methyl-piperazin-1-yl)-2-oxo-ethoxy]-phenyl}-1H-[1,2,3]triazol-4-yl)-1H-quinolin-2-one], for which the 50% inhibitory concentration (IC50) at PDGFRalpha(V561D) worked out at 0.021 µM; on c-Kit(V654A), 0.018 µM.

As to `O=C(c1ccc(-n2cc(-c3cc4cc(F)ccc4[nH]c3=O)nn2)cc1)N1CCOC[C@H]1CO` [A213, 6-fluoro-3-{1-[4-((R)-3-hydroxymethyl-morpholine-4-carbonyl)-phenyl]-1H-[1,2,3]triazol-4-yl}-1H-quinolin-2-one], the IC50 came out at 0.037 µM on PDGFRalpha(V561D) and 0.065 µM at c-Kit(V654A).

With `O=C(c1ccc(-n2cc(-c3cc4cc(F)ccc4[nH]c3=O)nn2)cc1)N1CCC2(COC2)C1` [A205, 6-fluoro-3-{1-[4-(2-oxa-6-aza-spiro[3.4]octane-6-carbonyl)-phenyl]-1H-[1,2,3]triazol-4-yl}-1H-quinolin-2-one], the IC50 on PDGFRalpha(V561D) amounted to 0.094 µM; on c-Kit(V654A), 0.036 µM.

Consider `CN1CCN(C(=O)c2cccc(-n3cc(-c4cc5cc(F)ccc5[nH]c4=O)nn3)c2)CC1` [A153, 6-Fluoro-3-{1-[3-(4-methyl-piperazine-1-carbonyl)-phenyl]-1H-[1,2,3]triazol-4-yl}-1H-quinolin-2-one], for which the half-inhibitory concentration (IC50) on PDGFRalpha(V561D) was determined as 0.004 µM; on c-Kit(V654A), 0.024 µM.

With `O=C(c1ccc(-n2cc(-c3cc4ccc(F)cc4[nH]c3=O)nn2)cc1)N1CCNCC1` [A117, 7-fluoro-3-{1-[4-(piperazine-1-carbonyl)-phenyl]-1H-[1,2,3]triazol-4-yl}-1H-quinolin-2-one], the concentration for half-maximal inhibition (IC50) was found to be 0.011 µM on PDGFRalpha(V561D) and 0.028 µM on c-Kit(V654A).

As for `CN1CCN(C(=O)c2ccc(-n3cc(-c4cc5cc(F)cnc5[nH]c4=O)nn3)cc2)CC1` [A67, 6-fluoro-3-{1-[4-(4-methyl-piperazine-1-carbonyl)-phenyl]-1H-[1,2,3]triazol-4-yl}-1H-[1,8]naphthyridin-2-one], the IC50 at PDGFRalpha(V561D) came to 0.004 µM; at c-Kit(V654A), 0.024 µM.

As for `CN1CCC(CNC(=O)c2ccc(-n3cc(-c4cc5ccccc5[nH]c4=O)nn3)cc2)CC1` [A15, N-(1-methyl-piperidin-4-ylmethyl)-4-[4-(2-oxo-1,2-dihydro-quinolin-3-yl)-[1,2,3]triazol-1-yl]-benzamide], the values for the IC50 on PDGFRalpha(V561D) and on c-Kit(V654A) were 0.047 µM and 0.049 µM, respectively.

On to `CN1CCC(C(=O)c2ccc(-n3cc(-c4cc5cc(F)c(F)cc5[nH]c4=O)nn3)cc2)CC1` [A164, 6,7-difluoro-3-{1-[4-(1-methyl-piperidine-4-carbonyl)-phenyl]-1H-[1,2,3]triazol-4-yl}-1H-quinolin-2-one], for which the IC50 at PDGFRalpha(V561D) was 0.011 µM; on c-Kit(V654A), 0.0084 µM.

As for `O=c1[nH]c2ccccc2cc1-c1cn(-c2ccc3nc[nH]c3c2)nn1` [A28, 3-[1-(3H-benzimidazol-5-yl)-1H-[1,2,3]triazol-4-yl]-1H-quinolin-2-one], the results for the IC50 at PDGFRalpha(V561D) and at c-Kit(V654A) were 0.029 µM and 0.036 µM, respectively.

`CO[C@@H]1CCN(C(=O)c2ccc(-n3cc(-c4cc5cc(F)ccc5[nH]c4=O)nn3)cc2)C1` [A111, 6-fluoro-3-{1-[4-((R)-3-methoxy-pyrrolidine-1-carbonyl)-phenyl]-1H-[1,2,3]triazol-4-yl}-1H-quinolin-2-one]: the IC50 was found to be 0.018 µM on PDGFRalpha(V561D) and 0.0077 µM on c-Kit(V654A).

Turning to `CN1CCCN(c2ccc(-n3cc(-c4cc5ccccc5[nH]c4=O)nn3)cc2)CC1` [A69, 3-{1-[4-(4-methyl-[1,4]diazepan-1-yl)-phenyl]-1H-[1,2,3]triazol-4-yl}-1H-quinolin-2-one], the IC50 stood at 0.01 µM on PDGFRalpha(V561D) and 0.014 µM at c-Kit(V654A).

For the molecule `O=c1[nH]c2cc(F)c(F)cc2cc1-c1cn(-c2ccc(OCCCN3CCNCC3)cc2)nn1` [A135, 6,7-difluoro-3-{1-[4-(3-piperazin-1-yl-propoxy)-phenyl]-1H-[1,2,3]triazol-4-yl}-1H-quinolin-2-one], the results for the IC50 on PDGFRalpha(V561D) and on c-Kit(V654A) were 0.31 µM and 0.18 µM, respectively.

As for `CCN(CC)[C@@H]1CCCN(C(=O)c2ccc(-n3cc(-c4cc5cc(F)ccc5[nH]c4=O)nn3)cc2)C1` [A338, 3-{1-[4-((R)-3-diethylamino-piperidine-1-carbonyl)-phenyl]-1H-[1,2,3]triazol-4-yl}-6-fluoro-1H-quinolin-2-one], the IC50 on PDGFRalpha(V561D) was found to be 0.16 µM; at c-Kit(V654A) it was 0.039 µM.

`O=C(c1ccc(-n2cc(-c3cc4c(F)cc(F)cc4[nH]c3=O)nn2)cc1)N1CCOCC1` [A90, 5,7-difluoro-3-{1-[4-(morpholine-4-carbonyl)-phenyl]-1H-[1,2,3]triazol-4-yl}-1H-quinolin-2-one]: the half-inhibitory concentration (IC50) on PDGFRalpha(V561D) was determined as 0.029 µM; on c-Kit(V654A), 0.02 µM.

For `O=C(c1ccc(-n2cc(-c3cc4ccc(Br)cc4[nH]c3=O)nn2)cc1)N1CCOCC1` [A91, 7-bromo-3-{1-[4-(morpholine-4-carbonyl)-phenyl]-1H-[1,2,3]triazol-4-yl}-1H-quinolin-2-one], the figures for the IC50 at PDGFRalpha(V561D) and at c-Kit(V654A) were 0.0082 µM and 0.019 µM, respectively.

Take `CN1CCN(C(=O)c2ccc(-n3cc(-c4cc5cc(Cl)ccc5[nH]c4=O)nn3)cc2)CC1=O` [A96, 6-chloro-3-{1-[4-(4-methyl-3-oxo-piperazine-1-carbonyl)-phenyl]-1H-[1,2,3]triazol-4-yl}-1H-quinolin-2-one]: the IC50 on PDGFRalpha(V561D) came to 0.00033 µM; on c-Kit(V654A) it was 0.0052 µM.

For the molecule `O=C1COCCN1c1ccc(-n2cc(-c3cc4ccccc4[nH]c3=O)nn2)cc1F` [A32, 3-{1-[3-fluoro-4-(3-oxo-morpholin-4-yl)-phenyl]-1H-[1,2,3]triazol-4-yl}-1H-quinolin-2-one], the IC50 at PDGFRalpha(V561D) is 0.011 µM; on c-Kit(V654A), 0.064 µM.

As to `COC[C@H]1CCN(C(=O)c2ccc(-n3cc(-c4cc5cc(F)c(F)cc5[nH]c4=O)nn3)cc2)C1` [A201, 6,7-difluoro-3-{1-[4-((S)-3-methoxymethyl-pyrrolidine-1-carbonyl)-phenyl]-1H-[1,2,3]triazol-4-yl}-1H-quinolin-2-one], the values for the IC50 on PDGFRalpha(V561D) and at c-Kit(V654A) were 0.092 µM and 0.097 µM, respectively.

As for `O=c1[nH]c2ccccc2cc1-c1cn(-c2ccc(N3CCCNCC3)cc2)nn1` [A55, 3-[1-(4-[1,4]diazepan-1-yl-phenyl)-1H-[1,2,3]triazol-4-yl]-1H-quinolin-2-one], the IC50 at PDGFRalpha(V561D) and at c-Kit(V654A) was 0.014 µM each time.

Regarding `COCCCN1CCN(C(=O)c2ccc(-n3cc(-c4cc5cc(F)cnc5[nH]c4=O)nn3)cc2)CC1` [A88, 6-fluoro-3-(1-{4-[4-(3-methoxy-propyl)-piperazine-1-carbonyl]-phenyl}-1H-[1,2,3]triazol-4-yl)-1H-[1,8]naphthyridin-2-one], the IC50 worked out at 0.006 µM at PDGFRalpha(V561D) and 0.09 µM on c-Kit(V654A).

For the molecule `CN1CCN(C(=O)c2ccc(-n3cc(-c4cc5cccc(F)c5[nH]c4=O)nn3)cc2)CC1` [A150, 8-fluoro-3-{1-[4-(4-methyl-piperazine-1-carbonyl)-phenyl]-1H-[1,2,3]triazol-4-yl}-1H-quinolin-2-one], the IC50 is 0.037 µM on PDGFRalpha(V561D) and 0.049 µM on c-Kit(V654A).

Consider `COCCCN1CCN(C(=O)c2ccc(-n3cc(-c4cc5cc(F)ccc5[nH]c4=O)nn3)cc2)CC1` [A86, 6-fluoro-3-(1-{4-[4-(3-methoxy-propyl)-piperazine-1-carbonyl]-phenyl}-1H-[1,2,3]triazol-4-yl)-1H-quinolin-2-one], for which the IC50 on PDGFRalpha(V561D) came out at 0.002 µM; at c-Kit(V654A), 0.011 µM.

In the case of `CC(=O)O[C@@H]1CCN(C(=O)c2ccc(-n3cc(-c4cc5cc(F)ccc5[nH]c4=O)nn3)cc2)C1` [A179, acetic acid (R)-1-{4-[4-(6-fluoro-2-oxo-1,2-dihydro-quinolin-3-yl)-[1,2,3]triazol-1-yl]-benzoyl}-pyrrolidin-3-yl ester], the IC50 on PDGFRalpha(V561D) came out at 0.0016 µM; at c-Kit(V654A) it was 0.014 µM.

With `CN1CCN(C(=O)c2ccc(-n3cc(-c4cc5ccc(C(F)(F)F)cc5[nH]c4=O)nn3)cc2)CC1` [A170, 3-{1-[4-(4-methyl-piperazine-1-carbonyl)-phenyl]-1H-[1,2,3]triazol-4-yl}-7-trifluoromethyl-1H-quinolin-2-one], the IC50 turned out to be 12 µM on PDGFRalpha(V561D) and 1.8 µM on c-Kit(V654A).

The values above are taken from patent publication US11939314B2, “Quinolin-2-one derivatives” (MERCK PATENT GMBH, priority 2016, dated 2024).
